Data as given in US10577378B2, “EIF4A-inhibiting compounds and methods related thereto” (eFFECTOR Therapeutics, Inc., priority 2015, dated 2020).

System: MDA-MB-231 human breast cancer cells
Assay: Cell proliferation assay (CellTiter-Glo, 72 hours treatment)
Type: cell-based
Settings: Homo sapiens; MDA-MB-231 cells, 72 hours at 37° C., CellTiter-Glo; read-out: MDA-MB-231 cell proliferation assay (IC50)
Method: Human tumor cell lines were cultured in the appropriate media (DMEM and RPMI) supplemented with penicillin G (100 U/ml), streptomycin (100 μg/ml), 10% FBS in a humidified atmosphere of 5% CO2 maintained at 37° C. Exponentially growing cells were seeded at 2,500 cells/well in 96 well plates prior to drug treatment. The following day, cells were treated with either DMSO (vehicle control) or eIF4A inhibitors at the appropriate dose for 72 hours at 37° C. Following compound treatment, cell proliferation was assessed by CellTiter-Glo assay (Promega, Madison Wis.) according to the manufacturer's protocol. Dose-response curves were fitted by non-linear regression (sigmoidal dose response model) using KaleidaGraph (Synergy Software, Reading Pa.) and IC50 values were calculated.
To this end, IC50 values of less than 100 nM are labelled as “+++”, from 100 nM to 1000 nM are labelled as “++”, and greater than 1000 nM are labelled as “+” (NA means “not available”).

Row | Compound | IC50
1 | CN(C)C(=O)[C@H]1[C@@H](O)[C@@]2(O)c3ncccc3O[C@@]2(c2ccc(C#N)cc2)[C@@H]1c1ccccc1 (single isomer, unassigned) [9F] | > 1 µM
2 | OC[C@@H]1C[C@@H](c2ccccc2)[C@]2(c3ccc(Br)cc3)Oc3cc(Cl)cnc3[C@]12O (racemic) [166F, rac-(5aR,6S,8S,8aR)-5a-(4-bromophenyl)-3-chloro-8-(hydroxymethyl)-6-phenyl-5a,6,7,8-tetrahydro-8aH-cyclopenta[4,5]furo[3,2-b]pyridin-8a-ol] | 0.1 to 1 µM
3 | CC(C)n1cc2c(n1)[C@]1(O)[C@H](O)[C@H](C(=O)N(C)C)[C@@H](c3ccccc3)[C@]1(c1ccc(C#N)cc1)O2 (racemic) [80F, rac-(4aR,5S,6R,7R,7aS)-4a-(4-cyanophenyl)-7,7a-dihydroxy-2-isopropyl-N,N-dimethyl-5-phenyl-2,4a,5,6,7,7a-hexahydrocyclopenta[4,5]furo[3,2-c]pyrazole-6-carboxamide] | > 1 µM
4 | COc1cncc2c1[C@]1(O)[C@H](O)[C@H](C(=O)N(C)C)[C@@H](c3ccccc3)[C@]1(c1ccc(C)cc1)O2 (racemic) [255F, rac-(4bS,5R,6R,7S,7aR)-4b,5-dihydroxy-4-methoxy-N,N-dimethyl-7-phenyl-7a-(p-tolyl)-4b,6,7,7a-tetrahydro-5H-cyclopenta[4,5]furo[2,3-c]pyridine-6-carboxamide] | 0.1 to 1 µM
5 | COc1nc(C#N)cc2c1[C@]1(O)[C@H](O)[C@H](CN3CCCC3)[C@@H](c3ccccc3)[C@]1(c1ccc(Br)cc1)O2 (racemic) [158Fa, Rac-(5aR,6S,7S,8R,8aS)-5a-(4-bromophenyl)-8,8a-dihydroxy-1-methoxy-6-phenyl-7-(pyrrolidin-1-ylmethyl)-5a,7,8,8a-tetrahydro-6H-cyclopenta[4,5]furo[3,2-c]pyridine-3-carbonitrile] | < 0.1 µM
6 | COc1nc(Cl)cc2c1[C@]1(O)[C@H](O)[C@H](C(=O)N3CCC34CC4(F)F)[C@@H](c3ccccc3)[C@]1(c1ccc(Br)cc1)O2 (mixture of isomers) [219F, Rac-((5aR,6S,7R,8R,8aS)-5a-(4-bromophenyl)-3-chloro-8,8a-dihydroxy-1-methoxy-6-phenyl-5a,7,8,8a-tetrahydro-6H-cyclopenta[4,5]furo[3,2-c]pyridin-7-yl)(1,1-difluoro-4-azaspiro[2.3]hexan-4-yl)methanone] | < 0.1 µM
7 | N#C[C@H]1[C@@H](O)[C@@]2(O)c3ncc(Cl)cc3O[C@@]2(c2ccc(Br)cc2)[C@@H]1c1ccccc1 (racemic) [27F, rac-(5aR,6S,7S,8R,8aS)-5a-(4-bromophenyl)-3-chloro-8,8a-dihydroxy-6-phenyl-5a,7,8,8a-tetrahydro-6H-cyclopenta[4,5]furo[3,2-b]pyridine-7-carbonitrile] | 0.1 to 1 µM
8 | O=S(=O)(Cc1ccccc1)[C@H]1[C@@H](O)[C@@]2(O)c3ncc(Cl)cc3O[C@@]2(c2ccc(Br)cc2)[C@@H]1c1ccccc1 (racemic) [93F, Rac-(5aR,6S,7R,8S,8aS)-7-(benzylsulfonyl)-5a-(4-bromophenyl)-3-chloro-6-phenyl-5a,6,7,8-tetrahydro-8aH-cyclopenta[4,5]furo[3,2-b]pyridine-8,8a-diol] | > 1 µM
9 | COc1cncc2c1[C@]1(O)[C@H](O)[C@H](CN(C)Cc3ccccc3)[C@@H](c3ccccc3)[C@]1(c1ccc(C#N)cc1)O2 (racemic) [76F, Rac-4-((4bS,5R,6S,7S,7aR)-6-((benzyl(methyl)amino)methyl)-4b,5-dihydroxy-4-methoxy-7-phenyl-4b,5,6,7-tetrahydro-7aH-cyclopenta[4,5]furo[2,3-c]pyridin-7a-yl)benzonitrile] | < 0.1 µM
10 | COc1cncc2c1[C@]1(O)[C@@H](CNCc3ccnn3C)[C@H](CO)[C@@H](c3ccccc3)[C@]1(c1ccc(Br)cc1)O2 (racemic) [203F, Rac-(4bR,5R,6R,7S,7aR)-7a-(4-bromophenyl)-6-(hydroxymethyl)-4-methoxy-5-((((1-methyl-1H-pyrazol-5-yl)methyl)amino)methyl)-7-phenyl-5,6,7,7a-tetrahydro-4bH-cyclopenta[4,5]furo[2,3-c]pyridin-4b-ol] | < 0.1 µM
11 | COc1cncc2c1[C@]1(O)[C@@H](CN(C)C)[C@H](CO)[C@@H](c3ccccc3)[C@]1(c1ccc(Br)cc1)O2 (racemic) [205F, Rac-(4bR,5R,6R,7S,7aR)-7a-(4-bromophenyl)-5-((dimethylamino)methyl)-6-(hydroxymethyl)-4-methoxy-7-phenyl-5,6,7,7a-tetrahydro-4bH-cyclopenta[4,5]furo[2,3-c]pyridin-4b-ol] | < 0.1 µM
12 | COc1nccc2c1[C@]1(O)[C@H](O)[C@H](CN(C)C)[C@@H](c3ccccc3)[C@]1(c1ccc(C(F)F)cc1)O2 (racemic) [148F, Rac-(5aR,6S,7S,8R,8aS)-5a-(4-(difluoromethyl)phenyl)-7-((dimethylamino)methyl)-1-methoxy-6-phenyl-5a,6,7,8-tetrahydro-8aH-cyclopenta[4,5]furo[3,2-c]pyridine-8,8a-diol] | > 1 µM
13 | NC[C@@H]1C[C@@H](c2ccccc2)[C@]2(c3ccc(Br)cc3)Oc3cc(Cl)cnc3[C@]12O (racemic) [165F, Rac-(5aR,6S,8S,8aR)-8-(aminomethyl)-5a-(4-bromophenyl)-3-chloro-6-phenyl-5a,6,7,8-tetra-hydro-8aH-cyclopenta[4,5]furo[3,2-b]pyridin-8a-ol] | 0.1 to 1 µM
14 | COc1cncc2c1[C@]1(O)[C@@H](CN)[C@H](CO)[C@@H](c3ccccc3)[C@]1(c1ccc(C#N)cc1)O2 (racemic) [171F, Rac-4-((4bR,5R,6R,7S,7aR)-5-(aminomethyl)-4b-hydroxy-6-(hydroxymethyl)-4-methoxy-7-phenyl-4b,5,6,7-tetrahydro-7aH-cyclopenta[4,5]furo[2,3-c]pyridin-7a-yl)benzonitrile] | 0.1 to 1 µM
15 | COc1cncc2c1[C@]1(O)[C@H](O)[C@H](CNCC(F)F)[C@@H](c3ccccc3)[C@]1(c1ccc(C#N)cc1)O2 (single isomer, unassigned) [115F] | 0.1 to 1 µM
16 | COc1cncc2c1[C@]1(O)[C@H](O)[C@H](CN(C)CCO)[C@@H](c3ccccc3)[C@]1(c1ccc(C#N)cc1)O2 (racemic) [75F, rac-4-((4bS,5R,6S,7S,7aR)-4b,5-dihydroxy-6-(((2-hydroxyethyl)(methyl)amino)methyl)-4-methoxy-7-phenyl-4b,5,6,7-tetrahydro-7aH-cyclopenta[4,5]furo[2,3-c]pyridin-7a-yl)benzonitrile] | 0.1 to 1 µM
17 | COc1nc(Cl)cc2c1[C@]1(O)[C@H](O)[C@H](CN(C)C)[C@@H](c3ccccc3)[C@]1(c1ccc(C(F)(F)F)cc1)O2 (racemic) [144F, Rac-(5aR,6S,7S,8R,8aS)-3-chloro-7-((dimethylamino)methyl)-1-methoxy-6-phenyl-5a-(4-(trifluoromethyl)phenyl)-5a,6,7,8-tetrahydro-8aH-cyclopenta[4,5]furo[3,2-c]pyridine-8,8a-diol] | < 0.1 µM
18 | COc1cncc2c1[C@]1(O)[C@H](O)[C@H](C(=O)N3CC(F)(F)C3)[C@@H](c3ccccc3)[C@]1(c1ccc(Br)cc1)O2 (racemic) [121F, Rac-((4bS,5R,6R,7S,7aR)-7a-(4-bromophenyl)-4b,5-dihydroxy-4-methoxy-7-phenyl-4b,6,7,7a-tetrahydro-5H-cyclopenta[4,5]furo[2,3-c]pyridin-6-yl)(3,3-difluoroazetidin-1-yl)methanone] | 0.1 to 1 µM
